Assay results published in PubChem BioAssay AID588764 (Broad Institute, 2011).
Records with an inconclusive call do not appear. Calls of active or inactive are those of the source. How the calls were made is not given here.

Target: Histone acetyltransferase RTT109 (Candida albicans (strain SC5314 / ATCC MYA-2876)) (UniProt Q5AAJ8)
Assay: C. albicans Rtt109 HAT inhibition curves – biochemical, cherry-picked hits, plate reader, dose response (AID 588764)
Settings: Rtt109/Vps75 HAT activity; for activity change, negative = inhibition: at 19.5 µM (top of the series)

Histone acetyltransferase RTT109 (Candida albicans (strain SC5314 / ATCC MYA-2876)), sequence (Q5AAJ8 whole entry, looked up): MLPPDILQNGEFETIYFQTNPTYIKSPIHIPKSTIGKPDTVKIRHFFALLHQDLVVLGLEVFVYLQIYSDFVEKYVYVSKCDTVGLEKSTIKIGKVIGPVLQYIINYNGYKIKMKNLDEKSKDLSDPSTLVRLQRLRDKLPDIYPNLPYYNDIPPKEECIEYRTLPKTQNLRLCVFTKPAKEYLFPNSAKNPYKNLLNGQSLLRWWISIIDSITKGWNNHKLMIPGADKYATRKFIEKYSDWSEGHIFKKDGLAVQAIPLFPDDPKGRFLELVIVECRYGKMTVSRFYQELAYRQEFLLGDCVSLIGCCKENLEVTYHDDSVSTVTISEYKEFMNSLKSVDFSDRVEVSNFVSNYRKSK

Structure (SMILES)	activity change, negative = inhibition	AC50
Cc1ccc(CN2CCN(CC(=O)NCc3ccccc3)CC2)cc1	inactive	
CCN(CC)c1ccc(C(=S)N2CCN(c3ccccc3)CC2)cc1	inactive	
Clc1ccc(COC(Cn2ccnc2)c2ccc(Cl)cc2Cl)c(Cl)c1 (configuration not stated)	inactive	
COc1ccccc1NS(=O)(=O)c1ccc(C)c(C(=O)NCC2(N(C)C)CCCCC2)c1	inactive	
O=C(NCCCN1CCCC1=O)c1ccc(OC(F)(F)F)cc1	inactive	
CCN1CCN(C(c2cccnc2)c2cc(Cl)c3cccnc3c2O)CC1 (configuration not stated)		13.9 µM
CC(C(=O)NC1CCS(=O)(=O)C1)N1C(=O)/C(=C/c2ccc(Cl)cc2)SC1=S (configuration not stated)	inactive	
CCOC(=O)C1CCN(c2ccc([N+](=O)[O-])c(C(C)=O)c2)CC1	inactive	
O=C1COc2ccc(C(=O)c3ccccc3C(=O)NCc3ccco3)cc2N1	inactive	
COc1ccc(-n2cnc3scc(-c4ccc(OC)c(OC)c4)c3c2=O)cc1	inactive	
CC(C)C[C@@H]1CN=C(N)N1C[C@@H]1CCCN1C[C@H](C)N1C[C@@H](Cc2ccccc2)N(CCc2ccc(Cl)c(Cl)c2)C1=N	inactive	
CCN(c1ccc(OC)cc1)S(=O)(=O)c1nnc(NC(=O)COc2ccc(C)cc2)s1	inactive	
CCN(CC)CCCNc1nc2cc(OC)c(OC)cc2c2nc(-c3cccnc3)nn12	inactive	
CCCC(CCC)C(=O)OC[N+](C)(C)CCOC(=O)C(O)(c1ccccc1)C1CCCC1 (configuration not stated)	inactive	
Cc1cc(C)c2c(=O)n(CC(=O)N3CCC(N4CCCCC4)CC3)sc2n1		4.72 µM
O=C1Nc2cc(C(=O)NCCCN3CCCC3)ccc2S/C1=C\c1ccccc1	inactive	
CCN(CC)CCOc1ccc2c(c1)C(=NNC(=O)c1ccccn1)c1cc(OCCN(CC)CC)ccc1-2	inactive	
O=C(NCC(=O)N1CCCCC1)c1ccc2ccccc2c1	inactive	
COc1ccccc1CC(=O)N1CCN(S(=O)(=O)c2ccccc2F)CC1	inactive	
O=C(CCc1ccc(S(=O)(=O)N2CCOCC2)cc1)N/N=C/c1ccc(O)c(O)c1O		9.29 µM
CCOc1ccc(N2C(=O)CC(Sc3ccccc3C(=O)O)C2=O)c([N+](=O)[O-])c1 (configuration not stated)	inactive	
CCOC(=O)c1c(C)oc2c1c(C=NCCO)c(O)c1ccccc12	inactive	
CC1CCc2c(sc(N)c2C(N)=O)C1 (configuration not stated)		20.5 µM

Structure (SMILES)	activity change, negative = inhibition	AC50
N#Cc1c(Nc2ccccc2Cl)s[nH]c1=O		4.21 µM
COCc1ccc(CN2CCC(n3nccc3NC(=O)C(OC)c3ccccc3)CC2)o1 (configuration not stated)	inactive	
Cc1cc(C(=O)Nc2ccncc2)c(C)o1	inactive	
Cc1ccc(NC(=O)c2cc(N3C(=O)C=CC3=O)ccc2N2CCOCC2)cc1		7.03 µM
C=CCNc1nnc(SC2CC(=O)N(c3ccc(OC)cc3)C2=O)s1 (configuration not stated)		13.4 µM
COc1cccc(NC(=O)CSc2nc3c(sc4ccccc43)c(=O)n2CCN(C)C)c1	inactive	
Cc1ccccc1Nc1nnc(SCC2CCCCO2)s1 (configuration not stated)	inactive	
O=c1c2ccccc2[se]n1-c1ccccc1		1.55 µM
CCn1c(C)c(CS(=O)(=O)c2ccccc2)[nH]c1=O		11.3 µM
Cn1c(=O)c2c(nc(NC3CCCCC3)n2CC(=O)C23CC4CC(CC(C4)C2)C3)n(C)c1=O	inactive	
Cc1ccc(-n2c(O)c(C=NCc3ccccn3)c3ccccc3c2=O)cc1C	inactive	
CCOC(=O)C1=C(C)N=c2s/c(=C/c3ccc(OCC(=O)O)cc3)c(=O)n2C1c1cc(OC)c(OC)c(OC)c1 (configuration not stated)	inactive	
COC(=O)c1cccc(N2C(=O)C(Cl)=C(N3CCOCC3)C2=O)c1		15.8 µM
Cc1ccc(S(=O)(=O)c2nc(-c3ccccc3)oc2N2CCC(C(N)=O)CC2)cc1	inactive	
CCCn1cc(S(=O)(=O)CC(=O)NC2CCCCC2)c2ccccc21	inactive	
Cc1cc(NC(=O)CCCn2nc([N+](=O)[O-])c(Cl)c2C)no1	inactive	
CCOC(=O)c1c(C)n(-c2ccc(C)cc2)c2ccc(OCC(O)CNCC3CCCO3)cc12 (configuration not stated)	inactive	
O=C(NCc1ccccc1)c1nc(S(=O)(=O)Cc2ccccc2)ncc1Cl		15 µM
O=C(NCCCN1CCN(c2ccccc2F)CC1)C1CCC(=O)N1C1CCCCC1 (configuration not stated)	inactive	
COc1ccc(C(=O)NNC(=O)c2ccncc2)cc1	inactive	
COc1ccc(/C=C/C(=O)O)cc1S(=O)(=O)NCc1ccco1	inactive	
COc1ccc(CNC(=O)COC(=O)c2ccc(S(=O)(=O)N3CCCCC3)cc2)cc1	inactive	
Cc1ccccc1C(=O)NC(NC(=S)Nc1ccc(S(N)(=O)=O)cc1)C(Cl)(Cl)Cl (configuration not stated)	inactive	

Structure (SMILES)	activity change, negative = inhibition	AC50
Cc1ccc(NC(=S)N(CCCN2CCCC2)Cc2cccn2Cc2ccc(Cl)cc2)cc1C	inactive	
Cc1nnc(SC2CC(=O)N(c3ccccc3)C2=O)s1 (configuration not stated)		17.5 µM
COc1cccc(/C=C2/Sc3ccc(C(=O)NCCCN4CCCC4)cc3NC2=O)c1	inactive	
NCC12CC3CC(C1)CC(c1ccc(Cl)cc1)(C3)C2	inactive	
CCOC(=O)C(=Cc1cc(=O)c(OC)co1)C(=O)OCC		10.7 µM
O=C(O)COc1ccccc1O	inactive	
O=C(O)C(Cc1ccccc1)N1C(=O)/C(=C/c2ccccc2)SC1=S (configuration not stated)	inactive	
Nc1nnc(SC2CC(=O)N(c3ccccc3)C2=O)s1 (configuration not stated)		13.6 µM
CCOC(=O)C1=C(C)NC(C)=C(C(=O)OCC)C1C(=O)OCC(=O)NCCc1ccc(S(N)(=O)=O)cc1	inactive	
CC(C)(C)C1CCc2c(sc(NC(=O)CSc3nnc(-c4ccccc4)o3)c2C#N)C1 (configuration not stated)	inactive	
COc1cccc(C(=O)NCc2nnc(SCC(=O)Nc3nccs3)n2-c2cccc(C)c2)c1	inactive	
C[C@]12CC[C@@H]3c4cc(O)c(O)cc4CC[C@H]3[C@@H]1CC[C@@H]2O		9.63 µM
CCOc1ccc(N2C(=O)CSC2c2ccncc2)cc1 (configuration not stated)	inactive	
CC1(C)C2CCC1(C)C(OCC[N+](C)(C)CC(=O)OC1CCCCC1)C2 (configuration not stated)	inactive	
O=C(/C=C/Nc1ccc([N+](=O)[O-])cc1Br)c1cccc2ccccc12	inactive	
Cc1ccc2nc(N(CCCN(C)C)C(=O)c3ccc4c(c3)CCCC4)sc2c1	inactive	
CC1Sc2ccccc2N(CC(=O)N(C(C)C)C(C)C)C1=O (configuration not stated)	inactive	
Cc1ccc(C(=O)NCC(=O)OCCOc2ccccc2Cl)cc1	inactive	
COc1ccc(-n2sc3ccc(F)cc3c2=O)cc1		6 µM
O=C(O)C1CCc2sc3[nH]c(=S)n(-c4ccccc4)c(=O)c3c21 (configuration not stated)		9.94 µM
O=S(=O)(Nc1ccc(-c2nnc(SCc3ccc(Cl)cc3)o2)cc1)c1ccccc1	inactive	
CC(C)CCNC(=O)C1CCN(S(=O)(=O)c2ccc3c(c2)CC(C)N3C(=O)C2CCC2)CC1 (configuration not stated)	inactive	
O=C(O)c1cccc2c1NC(C(=O)O)C1CC(Sc3ccccc3[N+](=O)[O-])C(Cl)C21 (configuration not stated)	inactive	

Structure (SMILES)	activity change, negative = inhibition	AC50
CN(C)CCCN(C(=O)CCOc1ccccc1)c1nc2c(F)cccc2s1	inactive	
CC(C)c1ccc(NC(=O)NC(C)c2ccc3c(c2)OCO3)cc1 (configuration not stated)	inactive	
O=C(CSC1=NCCN1)Nc1cccc([N+](=O)[O-])c1	inactive	
O=C(COC(=O)Cc1ccccc1[N+](=O)[O-])Nc1nnc(-c2ccccc2)o1	inactive	
CC(C)c1nc(SCC(=O)Nc2ccc(N3CCOCC3)cc2)c2ccccc2n1	inactive	
O=C(O)CSCC(=O)Nc1cc(C(F)(F)F)ccc1Cl	inactive	
COc1ccc(CNC(=O)C2(c3ccc(Cl)cc3)CC2)cc1	inactive	
C#CCOCCOCCOCCNc1nc(N2CCN(C(=O)[C@H](CCCCN)n3cc([C@@H](N)CC(C)C)nn3)CC2)nc(N2CCN(C(=O)[C@H](CCCCN)n3cc([C@@H](N)CC(C)C)nn3)CC2)n1	inactive	
CCCCOc1ccc(C2C(C(=O)c3ccc(C)o3)=C(O)C(=O)N2Cc2ccco2)cc1 (configuration not stated)	inactive	
O=C(Nc1nc(-c2nc3ccccc3s2)cs1)c1ccc(S(=O)(=O)N2CCOCC2)cc1	inactive	
C[C@H]1CC[C@H]2NCCN[C@H]2C1	inactive	
CCOC(=O)c1cc2c(N)c(C(=O)c3cc(C#N)c(SC)nc3C)sc2nc1C	inactive	
COC(=O)c1cc2c(ccn2-c2ccc(F)cc2)n1CC(=O)C(C)(C)C	inactive	
CC1=C(C)/C(=N\OS(=O)(=O)c2ccc(C)cc2)C=CC1=O		8.6 µM
C[C@H](NC(=O)c1ccco1)C(=O)Nc1ccc(S(=O)(=O)N2CCCC2)cc1	inactive	
Cc1ccc(NC(=S)Nc2ccc(F)cc2)cc1C	inactive	
COc1ccc(S(=O)(=O)N2CCN(c3ccccn3)CC2)cc1OC	inactive	
CCOc1ccccc1N1CCN(C(=O)c2ccncc2)CC1	inactive	
Clc1nc(Nc2ccccc2)nc(Nc2ccccc2)n1	inactive	
CCOC(=O)c1c(CNCCN(CC)CC)n(C)c2cc(Br)c(OC)cc12	inactive	
CN(C)S(=O)(=O)n1cc(/C=C(\NC(=O)c2ccccc2)C(=O)N2CCCC2)c2ccccc21	inactive	
N=C1c2ccccc2CN1NC(=O)c1ccccc1	inactive	
CC[n+]1c(C)sc2c(C)cc(C)cc21	inactive	
